Laboratory results from US8658791B2, “2-substituted-6-amino-5-alkyl, alkenyl or alkynyl-4-pyrimidinecarboxylic acids and 6-substituted-4-amino-3-alkyl, alkenyl or alkynyl picolinic acids and their use as herbicides” (Dow AgroSciences, LLC, priority 2007, dated 2014).

How the values were obtained:
[1] = tested on: barnyardgrass (Echinochloa crus-galli); test: General postemergence herbicidal activity, ECHCG; type: in vivo; conditions: Echinochloa crus-galli, post-emergence, 336 h, postemergence spray, visual score after 14 days, 0 = no injury, 100 = complete kill, read-out: Post-emergent Weed Control ECHCG; for pest or weed control at 280 g/ha: 280 g ai/ha; for pest or weed control at 70 g/ha: 70 g ai/ha; for pest or weed control at 140 g/ha: 140 g ai/ha
Summary of the method: (§1)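 Test species were grown 7-21 days in potting mix under greenhouse conditions, then treated postemergence by track sprayer delivering 187 L/ha. Rates comprised the high rate and twofold dilutions down to 1/16X. After 14 days with sub-irrigation, damage is scored from 0 (no injury) to 100 (complete kill).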

[2] = tested on: lambsquarter (Chenopodium album); test: General postemergence herbicidal activity, CHEAL; type: in vivo; conditions: Chenopodium album, post-emergence, 336 h, postemergence spray, visual score after 14 days, 0 = no injury, 100 = complete kill, read-out: Post-emergent Weed Control CHEAL; for pest or weed control at 280 g/ha: 280 g ai/ha; for pest or weed control at 70 g/ha: 70 g ai/ha; for pest or weed control at 140 g/ha: 140 g ai/ha
Summary of the method: as §1

[3] = tested on: velvetleaf (Abutilon theophrasti); test: General preemergence herbicidal activity, ABUTH; type: in vivo; conditions: 140 g ai/ha, applied to soil surface, visual score after 20-22 days, 0 = no injury, 100 = complete kill or no emergence, read-out: Pre-emergent Weed Control ABUTH
From the text: (§2) Seeds of the desired test plant species were planted in a soil matrix prepared by mixing a loam soil (43 percent silt, 19 percent clay, and 38 percent sand, with a pH of about 8.1 and an organic matter content of about 1.5 percent) and sand in a 70 to 30 ratio. The soil matrix was contained in plastic pots with a surface area of 127 square centimeters. When required to ensure good germination and healthy plants, a fungicide treatment and/or other chemical or physical treatment was applied. A weighed amount, determined by the highest rate to be tested, of each test compound was placed in a 25 mL glass vial and was dissolved in 6 mL of a 97:3 v/v (volume/volume) mixture of acetone and DMSO to obtain concentrated stock solutions. […] The stock solutions obtained were diluted with 18 mL of a 0.1% v/v aqueous solution of Tween® 20 surfactant to obtain spray solutions containing the highest application rate. Additional application rates were obtained by serial dilution of 12 mL of the high rate solution into a solution containing 3 mL of 97:3 v/v mixture of acetone and DMSO and 9 mL of the 0.1% v/v aqueous solution of Tween® 20 surfactant to obtain 1/2X, 1/4X, 1/8X and 1/16X rates of the high rate. Compound requirements are based upon a 12 mL application volume at a rate of 187 L/ha. Formulated compounds were applied to the soil surface with an overhead Mandel track sprayer equipped with a […] nozzles calibrated to deliver 187 L/ha over an application area of 0.503 square meters at a spray height of 18 inches (43 cm) above the soil surface. Control pots were sprayed in the same manner with the solvent blank. The treated pots and control pots were placed in a greenhouse maintained with an approximate 15 hour photoperiod and temperatures of about 23-29° C. during the day and 22-28° C. during the night. Nutrients and water were added on a regular basis and supplemental lighting was provided with overhead metal halide 1000-Watt lamps as necessary. The water was added by top-irrigation. After 20-22 days, the condition of the test plants that germinated and grew as compared with that of the untreated plants that emerged and grew was determined visually and scored on a scale of 0 to 100 percent where 0 corresponds to no injury and 100 corresponds to complete kill or no emergence.

[4] = tested on: velvetleaf (Abutilon theophrasti); test: General postemergence herbicidal activity, ABUTH; type: in vivo; conditions: Abutilon theophrasti, post-emergence, 336 h, postemergence spray, visual score after 14 days, 0 = no injury, 100 = complete kill, read-out: Post-emergent Weed Control ABUTH; for pest or weed control at 280 g/ha: 280 g ai/ha; for pest or weed control at 70 g/ha: 70 g ai/ha; for pest or weed control at 140 g/ha: 140 g ai/ha
Summary of the method: as §1

[5] = tested on: rice (Oryza sativa); test: General preemergence herbicidal activity, ORYSA; type: in vivo; conditions: 140 g ai/ha, applied to soil surface, visual score after 20-22 days, 0 = no injury, 100 = complete kill or no emergence, read-out: Pre-emergent Weed Control ORYSA
From the text: as §2

[6] = tested on: rice (Oryza sativa); test: General postemergence herbicidal activity, ORYSA; type: in vivo; conditions: Oryza sativa, post-emergence, 336 h, postemergence spray, visual score after 14 days, 0 = no injury, 100 = complete kill, read-out: Post-emergent Weed Control ORYSA; for plant injury at 280 g/ha: 280 g ai/ha; for plant injury at 70 g/ha: 70 g ai/ha; for plant injury at 140 g/ha: 140 g ai/ha
Summary of the method: as §1

[7] = tested on: barnyardgrass (Echinochloa crus-galli); test: General preemergence herbicidal activity, ECHCG; type: in vivo; conditions: 140 g ai/ha, applied to soil surface, visual score after 20-22 days, 0 = no injury, 100 = complete kill or no emergence, read-out: Pre-emergent Weed Control ECHCG
From the text: as §2

[8] = tested on: lambsquarter (Chenopodium album); test: General preemergence herbicidal activity, CHEAL; type: in vivo; conditions: 140 g ai/ha, applied to soil surface, visual score after 20-22 days, 0 = no injury, 100 = complete kill or no emergence, read-out: Pre-emergent Weed Control CHEAL
From the text: as §2

[9] = tested on: wild poinsettia (Euphorbia heterophylla); test: General preemergence herbicidal activity, EPHHL; type: in vivo; conditions: 140 g ai/ha, applied to soil surface, visual score after 20-22 days, 0 = no injury, 100 = complete kill or no emergence, read-out: Pre-emergent Weed Control EPHHL
From the text: as §2

[10] = tested on: wild poinsettia (Euphorbia heterophylla); test: General postemergence herbicidal activity, EPHHL; type: in vivo; conditions: Euphorbia heterophylla, post-emergence, 336 h, postemergence spray, visual score after 14 days, 0 = no injury, 100 = complete kill, read-out: Post-emergent Weed Control EPHHL; for pest or weed control at 280 g/ha: 280 g ai/ha; for pest or weed control at 70 g/ha: 70 g ai/ha; for pest or weed control at 140 g/ha: 140 g ai/ha
Summary of the method: as §1

melting point | Compound | pest or weed control at 70 g/ha [1] | pest or weed control at 70 g/ha [2] | pest or weed control at 70 g/ha [4] | plant injury at 70 g/ha [6] | pest or weed control at 70 g/ha [10] | pest or weed control at 140 g/ha [1] | pest or weed control at 140 g/ha [2] | pest or weed control at 140 g/ha [4] | plant injury at 140 g/ha [6] | pest or weed control at 140 g/ha [10] | also measured
– | CCOC(=O)c1nc(C2CC2)nc(N)c1C [Compound 1, 6-Amino-2-cyclopropyl-5-methylpyrimidine-4-carboxylic acid ethyl ester] | – | – | – | – | – | – | – | – | – | – | pest or weed control at 280 g/ha [1]: 0%; pest or weed control at 280 g/ha [2]: 80%; pest or weed control at 140 g/ha [3]: 80%; pest or weed control at 280 g/ha [4]: 15%; plant injury at 140 g/ha [5]: 30%; plant injury at 280 g/ha [6]: 0%; pest or weed control at 140 g/ha [7]: 80%; pest or weed control at 140 g/ha [8]: 100%; pest or weed control at 140 g/ha [9]: 100%; pest or weed control at 280 g/ha [10]: 100%
– | C=Cc1c(N)nc(-c2ccc(Cl)c(OC)c2F)nc1C(=O)OC [Compound 3, 6-Amino-2-(4-chloro-2-fluoro-3-methoxyphenyl)-5-vinylpyrimidine-4-carboxylic acid methyl ester] | 95% | 100% | 100% | 15% | 100% | – | – | – | – | – | pest or weed control at 140 g/ha [3]: 80%; plant injury at 140 g/ha [5]: 30%; pest or weed control at 140 g/ha [7]: 80%; pest or weed control at 140 g/ha [8]: 100%; pest or weed control at 140 g/ha [9]: 100%
91 to 93 °C | C/C=C\c1c(N)nc(-c2ccc(Cl)c(OC)c2F)nc1C(=O)OC [Compound 23, 6-Amino-2-(4-chloro-2-fluoro-3-methoxyphenyl)-5-((Z)-propenyl)pyrimidine-4-carboxylic acid methyl ester] | 95% | 95% | 85% | 10% | 100% | – | – | – | – | – | –
165 to 167 °C | COc1c(Cl)ccc(-c2nc(N)c(C(C)OC)c(C(=O)O)n2)c1F (centres unmarked) [Compound 40, 6-Amino-2-(4-chloro-2-fluoro-3-methoxyphenyl)-5-(1-methoxyethyl)pyrimidine-4-carboxylic acid] | – | – | – | – | – | – | – | – | – | – | pest or weed control at 280 g/ha [1]: 90%; pest or weed control at 280 g/ha [2]: 100%; pest or weed control at 280 g/ha [4]: 85%; plant injury at 280 g/ha [6]: 35%; pest or weed control at 280 g/ha [10]: 100%
167 to 168 °C | C=Cc1c(N)nc(-c2ccc(Cl)c(OC)c2F)nc1C(=O)O [Compound 41, 6-Amino-2-(4-chloro-2-fluoro-3-methoxyphenyl)-5-vinylpyrimidine-4-carboxylic acid] | 100% | 100% | 100% | 65% | 100% | – | – | – | – | – | –
170 to 172 °C | C=Cc1c(N)nc(-c2ccc(Cl)c(F)c2F)nc1C(=O)O [Compound 44, 6-amino-2-(4-chloro-2,3-difluorophenyl)-5-vinylpyrimidine-4-carboxylic acid] | 100% | 100% | 100% | 15% | 100% | – | – | – | – | – | –
81 to 83 °C | C=Cc1c(N)nc(-c2cc(F)c(Cl)cc2F)nc1C(=O)O [Compound 46, 6-Amino-2-(4-chloro-2,5-difluorophenyl)-5-vinylpyrimidine-4-carboxylic acid] | – | – | – | – | – | 90% | 100% | 90% | 40% | 95% | –
150 to 153 °C | C=Cc1c(N)nc(-c2ccc(Cl)c(C(C)F)c2F)nc1C(=O)O (centres unmarked) [Compound 47, 6-Amino-2-(4-chloro-2-fluoro-3-(1-fluoroethyl)phenyl)-5-vinylpyrimidine-4-carboxylic acid] | 100% | 100% | 90% | 50% | 100% | – | – | – | – | – | –
187 to 189 °C | C=Cc1c(N)nc(C2CC2)nc1C(=O)O [Compound 57, 6-amino-2-cyclopropyl-5-vinylpyrimidine-4-carboxylic acid] | – | – | – | – | – | 30% | 100% | 90% | 5% | 100% | –
209 to 211 °C | C=Cc1c(N)cc(-c2ccc(Cl)cc2F)nc1C(=O)O [Compound 60, 4-Amino-6-(4-chloro-2-fluorophenyl)-3-vinylpyridine-2-carboxylic acid] | – | – | – | – | – | 35% | 100% | 70% | 15% | 80% | –
